test system: differentiated 3T3-L1 mouse adipocyte cells; assay: Adipocyte glucose consumption in differentiated 3T3-L1 mouse adipocyte cells (loss of glucose from medium, colorimetric); assay type: cell-based; settings: compound 10 μM, 22 to 24 hours, differentiated 3T3-L1 adipocytes, compound/DMSO, read-out: Glucose consumption (fold change) Mean
Description: Activity of compounds on adipocyte glucose consumption was tested in differentiated 3T3-L1 mouse adipocyte cells. 3T3-L1 preadipocytes (ATCC) were routinely cultured in a growth medium composed of DMEM high-glucose (Sigma), 10% FBS (Gibco), 10 U/ml penicillin and 10 μg/ml streptomycin (P/S; Gibco). To induce adipogenic differentiation, a confluent layer of 3T3-L1 cells were incubated with the growth medium containing 2 μM rosiglitazone, 1 μM dexamethasone, 500 μM IBMX, and 1 μg/ml insulin (Sigma). Forty-eight (48) hours later (on day 2) and on days 4 and 6, medium of the cells was replaced with fresh medium containing 1 μg/ml insulin. On days 8 and 10, the medium was refreshed with regular growth medium and addition of insulin was omitted. On day 11 or 12, medium of the cells were replaced with fresh medium containing either the indicated compounds (10 μM) or the vehicle in which the compounds were dissolved (DMSO). The final concentration of DMSO was 0.1% (v/v). Growth medium containing 0.1% DMSO was incubated in culture wells containing no cells and used as control. Twenty-two to 24 hours later, medium was harvested and subjected to centrifugation at 10,000 g for 5 min. Glucose concentration in the supernatants was determined using a colorimetric assay (Glucose Assay Kit I, Eton Biosciences). Glucose consumption in compound and vehicle treated cells was measured as loss of glucose from the culture medium and represented as mean fold change (compound/DMSO) t standard deviation (SD).

Compared with CCCCCCC1CCCc2c(n(Cc3cccc(C#N)c3F)c3c(C(=O)O)cccc23)C1 (stereo not drawn) [5-[(3-cyano-2-fluorophenyl)methyl]-7-hexyl-5H,6H,7H,8H,9H,10H-cyclohepta[b]indole-4-carboxylic acid], CCCCC1CCCc2c(n(Cc3ccccc3C#N)c3c(C(=O)O)cccc23)C1 (stereo not drawn) [7-butyl-5-[(2-cyanophenyl)methyl]-5H,6H,7H,8H,9H,10H-cyclohepta[b]indole-4-carboxylic acid] is lower in fold induction at 10 µM: 1.36 for the first, 1.1 for the second.

Compared with CCCCCCC1CCCc2c(n(Cc3cccc(C#N)c3)c3c(C(=O)O)cc(F)cc23)C1 (stereo not drawn) [5-[(3-cyanophenyl)methyl]-2-fluoro-7-hexyl-5H,6H,7H,8H,9H,10H-cyclohepta[b]indole-4-carboxylic acid], CCCCCCC1CCCc2c(n(Cc3cccc(C#N)c3)c3c(C(=O)O)cccc23)C1 (stereo not drawn) [5-[(3-cyanophenyl)methyl]-7-hexyl-5H,6H,7H,8H,9H,10H-cyclohepta[b]indole-4-carboxylic acid] is lower in fold induction at 10 µM: 1.33 for the first, 1.26 for the second.

Compared with N#Cc1cccc(Cn2c3c(c4cccc(C(=O)O)c42)CCCC(CCc2ccccc2)C3)c1 (stereo not drawn) [5-[(3-cyanophenyl)methyl]-7-(2-phenylethyl)-5H,6H,7H,8H,9H,10H-cyclohepta[b]indole-4-carboxylic acid], CCCCC1CCCc2c(n(Cc3cccc(C#N)c3)c3c(C(=O)O)cccc23)C1 (stereo not drawn) [7-butyl-5-[(3-cyanophenyl)methyl]-5H,6H,7H,8H,9H,10H-cyclohepta[b]indole-4-carboxylic acid] is higher in fold induction at 10 µM: 1.02 for the first, 1.29 for the second.

Compared with CCC1CCCc2c(n(Cc3cccc(C#N)c3)c3c(C(=O)O)cccc23)C1 (stereo not drawn) [5-[(3-cyanophenyl)methyl]-7-ethyl-5H,6H,7H,8H,9H,10H-cyclohepta[b]indole-4-carboxylic acid], CCCCCC1CCCc2c(n(Cc3cccc(C#N)c3)c3c(C(=O)O)cccc23)C1 (stereo not drawn) [5-[(3-cyanophenyl)methyl]-7-pentyl-5H,6H,7H,8H,9H,10H-cyclohepta[b]indole-4-carboxylic acid] is higher in fold induction at 10 µM: 1.16 for the first, 1.35 for the second.

First: CCCCCCCCC1CCCc2c(n(Cc3cccc(C#N)c3)c3c(C(=O)O)cccc23)C1 (stereo not drawn) [5-[(3-cyanophenyl)methyl]-7-octyl-5H,6H,7H,8H,9H,10H-cyclohepta[b]indole-4-carboxylic acid]
Second: CCCCCCC1CCCc2c(n(Cc3cccc(F)c3)c3c(C(=O)O)cccc23)C1 (stereo not drawn) [5-[(3-fluorophenyl)methyl]-7-hexyl-5H,6H,7H,8H,9H,10H-cyclohepta[b]indole-4-carboxylic acid]
The fold induction at 10 µM of the first is lower: 1.12 for the first, 1.14 for the second.

First: CCC1CCCCc2c1c1cccc(C(=O)O)c1n2Cc1cccc(C#N)c1 (stereo not drawn) [5-[(3-cyanophenyl)methyl]-10-ethyl-5H,6H,7H,8H,9H,10H-cyclohepta[b]indole-4-carboxylic acid]
Second: CCCC1CCCCc2c1c1cccc(C(=O)O)c1n2Cc1cccc(C#N)c1 (stereo not drawn) [5-[(3-cyanophenyl)methyl]-10-propyl-5H,6H,7H,8H,9H,10H-cyclohepta[b]indole-4-carboxylic acid]
The fold induction at 10 µM of the first is lower: 1.15 for the first, 1.18 for the second.

First: CCCCCC1CCCCc2c1c1cccc(C(=O)O)c1n2Cc1cccc(C#N)c1 (stereo not drawn) [5-[(3-cyanophenyl)methyl]-10-pentyl-5H,6H,7H,8H,9H,10H-cyclohepta[b]indole-4-carboxylic acid]
Second: CCCCC1CCCCc2c1n(Cc1cccc(C#N)c1)c1c(C(=O)O)cccc21 (stereo not drawn) [6-butyl-5-[(3-cyanophenyl)methyl]-5H,6H,7H,8H,9H,10H-cyclohepta[b]indole-4-carboxylic acid]
The fold induction at 10 µM of the first is higher: 1.2 for the first, 1.16 for the second.

First: CCCCCCC1CCCc2c(n(Cc3ccc(C(N)=O)cc3)c3c(C(=O)O)cccc23)C1 (stereo not drawn) [5-[(4-carbamoylphenyl)methyl]-7-hexyl-5H,6H,7H,8H,9H,10H-cyclohepta[b]indole-4-carboxylic acid]
Second: CCCCCCC1CCCc2c(n(Cc3ccc(F)cc3)c3c(C(=O)O)cccc23)C1 (stereo not drawn) [5-[(4-fluorophenyl)methyl]-7-hexyl-5H,6H,7H,8H,9H,10H-cyclohepta[b]indole-4-carboxylic acid]
The fold induction at 10 µM of the first is lower: 1.05 for the first, 1.17 for the second.

First: CCCCCCC1CCCc2c(n(Cc3ccc(C#N)cc3)c3c(C(=O)O)cccc23)C1 (stereo not drawn) [5-[(4-cyanophenyl)methyl]-7-hexyl-5H,6H,7H,8H,9H,10H-cyclohepta[b]indole-4-carboxylic acid]
Second: CCCCCCC1CCCc2c(n(Cc3cncc(C#N)c3)c3c(C(=O)O)cccc23)C1 (stereo not drawn) [5-[(5-cyanopyridin-3-yl)methyl]-7-hexyl-5H,6H,7H,8H,9H,10H-cyclohepta[b]indole-4-carboxylic acid]
The fold induction at 10 µM of the first is lower: 0.94 for the first, 1.06 for the second.

Compared with CCCCCCC1CCCc2c(n(Cc3ccc(C#N)o3)c3c(C(=O)O)cccc23)C1 (stereo not drawn) [5-[(5-cyanofuran-2-yl)methyl]-7-hexyl-5H,6H,7H,8H,9H,10H-cyclohepta[b]indole-4-carboxylic acid], CCCCCCC1CCCc2c(n(Cc3ccc(C#N)s3)c3c(C(=O)O)cccc23)C1 (stereo not drawn) [5-[(5-cyanothiophen-2-yl)methyl]-7-hexyl-5H,6H,7H,8H,9H,10H-cyclohepta[b]indole-4-carboxylic acid] is lower in fold induction at 10 µM: 1.29 for the first, 1.05 for the second.

First: CCCCCCC1CCCc2c(n(Cc3csc(C#N)c3)c3c(C(=O)O)cccc23)C1 (stereo not drawn) [5-[(5-cyanothiophen-3-yl)methyl]-7-hexyl-5H,6H,7H,8H,9H,10H-cyclohepta[b]indole-4-carboxylic acid]
Second: CCCCCCC1CCCc2c(n(Cc3cccc(C#N)n3)c3c(C(=O)O)cccc23)C1 (stereo not drawn) [5-[(6-cyanopyridin-2-yl)methyl]-7-hexyl-5H,6H,7H,8H,9H,10H-cyclohepta[b]indole-4-carboxylic acid]
The fold induction at 10 µM of the first is lower: 1.2 for the first, 1.28 for the second.

Compared with CCCCCCC1CCCc2c(n(Cc3cccc(C(N)=O)n3)c3c(C(=O)O)cccc23)C1 (stereo not drawn) [5-[(6-carbamoylpyridin-2-yl)methyl]-7-hexyl-5H,6H,7H,8H,9H,10H-cyclohepta[b]indole-4-carboxylic acid], CCCCCCC1CCCc2c(n(Cc3cccc(C(=O)O)n3)c3c(C(=O)O)cccc23)C1 (stereo not drawn) [6-({4-carboxy-7-hexyl-5H,6H,7H,8H,9H,10H-cyclohepta[b]indol-5-yl}methyl)pyridine-2-carboxylic acid] is lower in fold induction at 10 µM: 1.23 for the first, 0.96 for the second.

Going from CCCCCCC1CCCc2c(n(Cc3cccc(F)n3)c3c(C(=O)O)cccc23)C1 (stereo not drawn) [5-[(6-fluoropyridin-2-yl)methyl]-7-hexyl-5H,6H,7H,8H,9H,10H-cyclohepta[b]indole-4-carboxylic acid] to CCCCC1CCCc2c(n(Cc3cccc(F)c3)c3c(C(=O)O)cccc23)C1 (stereo not drawn) [7-butyl-5-[(3-fluorophenyl)methyl]-5H,6H,7H,8H,9H,10H-cyclohepta[b]indole-4-carboxylic acid], the fold induction at 10 µM falls from 1.25 to 1.12.

Going from CCCCC1CCCCc2c1n(Cc1cccc(C(N)=O)c1)c1c(C(=O)O)cccc21 (stereo not drawn) [6-butyl-5-[(3-carbamoylphenyl)methyl]-5H,6H,7H,8H,9H,10H-cyclohepta[b]indole-4-carboxylic acid] to CCCCC1CCCc2c(n(Cc3cccc(C(N)=O)c3)c3c(C(=O)O)cccc23)C1 (stereo not drawn) [7-butyl-5-[(3-carbamoylphenyl)methyl]-5H,6H,7H,8H,9H,10H-cyclohepta[b]indole-4-carboxylic acid], the fold induction at 10 µM rises from 1.03 to 1.12.

Going from CCCCC1CCCc2c(n(Cc3ccccc3C(N)=O)c3c(C(=O)O)cccc23)C1 (stereo not drawn) [7-butyl-5-[(2-carbamoylphenyl)methyl]-5H,6H,7H,8H,9H,10H-cyclohepta[b]indole-4-carboxylic acid] to CCCCC1CCCc2c(n(Cc3ccccc3C)c3c(C(=O)O)cccc23)C1 (stereo not drawn) [7-butyl-5-[(2-methylphenyl)methyl]-5H,6H,7H,8H,9H,10H-cyclohepta[b]indole-4-carboxylic acid], the fold induction at 10 µM rises from 1.11 to 1.12.

Going from CCCCC1CCCc2c(n(Cc3ccccc3F)c3c(C(=O)O)cccc23)C1 (stereo not drawn) [7-butyl-5-[(2-fluorophenyl)methyl]-5H,6H,7H,8H,9H,10H-cyclohepta[b]indole-4-carboxylic acid] to CCCCC1CCCc2c(n(Cc3cccc(Cl)c3)c3c(C(=O)O)cccc23)C1 (stereo not drawn) [7-butyl-5-[(3-chlorophenyl)methyl]-5H,6H,7H,8H,9H,10H-cyclohepta[b]indole-4-carboxylic acid], the fold induction at 10 µM rises from 1.11 to 1.18.

Compared with CCCCC1CCCc2c(n(Cc3cccc(C(N)=O)c3)c3c(C(=O)NCCO)cccc23)C1 (stereo not drawn) [7-butyl-5-[(3-carbamoylphenyl)methyl]-N-(2-hydroxyethyl)-5H,6H,7H,8H,9H,10H-cyclohepta[b]indole-4-carboxamide], CCCCC1CCCc2c(n(Cc3cccc(C#N)c3)c3c(C(=O)NCCO)cccc23)C1 (stereo not drawn) [7-butyl-5-[(3-cyanophenyl)methyl]-N-(2-hydroxyethyl)-5H,6H,7H,8H,9H,10H-cyclohepta[b]indole-4-carboxamide] is higher in fold induction at 10 µM: 0.98 for the first, 1.08 for the second.

Going from CCCCC1CCCc2c(n(Cc3cccc(C(=O)O)c3)c3c(C(=O)O)cccc23)C1 (stereo not drawn) [7-butyl-5-[(3-carboxyphenyl)methyl]-5H,6H,7H,8H,9H,10H-cyclohepta[b]indole-4-carboxylic acid] to CCCCC1CCCc2c(n(Cc3cccc(O)c3)c3c(C(=O)O)cccc23)C1 (stereo not drawn) [7-butyl-5-[(3-hydroxyphenyl)methyl]-5H,6H,7H,8H,9H,10H-cyclohepta[b]indole-4-carboxylic acid], the fold induction at 10 µM rises from 0.95 to 1.14.

— US20230331673A1, “COMPOSITION OF COMPOUNDS THAT MODULATE CELL METABOLISM AND METHODS OF USE” (CRESCENTA BIOSCIENCES, priority 2020, published 2023)
